Source: patent US4443466A, “4-Benzyl- and 4-benzoyl-substituted imidazole derivatives and use as medicaments” (priority 1980, dated 1984)
Like-named read-outs stand apart in the source and are kept apart here.

What was measured:
[1] = Acute toxicity in female NMRI mice, i.v.; details: in vivo, iv, mouse
Experimental: Acute toxicity was determined by using female mice of NMRI-Strain with an age of about 7 months and weighing 30-40 g. The administration of the test compound was i.v.

[2] = system: indomethacin-induced ulcers; test: Preventive effect on formation of indomethacin-induced ulcers; type: in vivo, rat (female Sprague-Dawley); details: for ED50: Rattus norvegicus, ip, 4 h, read-out: ED50 (ulcer prevention)
[3] = system: anesthetized Sprague-Dawley rats (blood pressure, pulse frequency); test: Blood pressure and pulse frequency in anesthetized normal-weight Sprague-Dawley rats (i.v.); type: in vivo, rat (Sprague-Dawley); details: for anti-hypertensive effect: tested as above; for minimal effective dose: Rattus norvegicus, iv
Experimental: The anti-hypertensive properties of the imidazole derivatives of the present invention have been determined according to the following procedure. Sprague-Dawley rats of normal weight were first anesthetized with urethane. After this, the femoral artery was connected by way of a polyethylene tube with a blood pressure transducer. The test substance was then injected into the femoral vein and the blood pressure and the pulse frequency were registered with a recorder. The minimum doses producing a significant change were found, i.e. ± at least 20% in the case of blood pressure, and ± at least 3% in the case of pulse frequency.

[4] = system: rats (blood pressure); test: Applicant's experiments on prior-art imidazoles: anti-hypertensive activity / blood pressure in rats; type: in vivo, rat
[5] = system: male mice on a 55° C. hot plate; test: Hot plate test; type: in vivo, mouse (male); details: for Analgesic activity: 1.5 mg/kg; for change in vivo at 1.5 mg/kg: Mus musculus, ip, 0.5 h, 1.5 mg/kg i.p., read-out: increase in HP-time (%)
Experimental: (§1) The analgesic activity of the compounds of formula (I) was tested in the following manner: […]
Test compounds or saline were given i.p. to male mice. Thirty minutes thereafter, the time for which the mice remained on a 55° C. plate was recorded. The results are expressed as compared to saline.

[6] = Preventive effect on formation of indomethacin-induced ulcers; type: in vivo, rat (female Sprague-Dawley); details: rat, in vivo, iv; LD50 (mouse, i.v.) / ED50 (ulcer); read-out: Therapeutic Index
[7] = system: spontaneous hypertensive rats (SHR) (blood pressure); test: Blood pressure in unanesthetized Okamoto-Aoki spontaneous hypertensive rats (SHR), peroral; type: in vivo, rat (Okamoto-Aoki SHR)
Experimental: In a further test for anti-hypertensive properties, unanesthetized Okamoto-Aoki spontaneous hypertensive rats (SHR) were used. The test derivative was administered perorally by way of a tube into the stomach. The blood pressure was measured from the tail using an indirect bloodless method.

[8] = system: rats (motility, muscle tone, catalepsia); test: Tranquilizing activity: Irwin screen in rats; type: in vivo, rat; details: 1.0 mg/kg
Experimental: (§2) The tranquilizing activity of the compounds was determined by the following methods:
(1) Irwin screen in rats (Irwin S., Psychopharmacologia 13:222, 1968)
Especially sedatory and cataleptic activity and effects on muscle tone are observed.

[9] = system: cattle (avoidance, muscle tone); test: Tranquilizing or taming effect on cattle; type: in vivo; details: 0.05 mg/kg i.m.
Experimental: as §2
(2) Tranquilizing or taming effect on cattle:
The test compounds were administered i.m. to cattle, mostly to heifers (150-200 kg).
The most suitable tranquilized state of an animal includes the ability to retain the upright position and coordination with minimal avoidance reactions to painful stimuli and handling. Thus, a combination of sedative and analgesic potency is required.

[10] = system: acetic acid-induced writhing; test: Writhing test (acetic acid); type: in vivo, rat; details: for Analgesic activity: 100 mg/kg; for W-number: 100 mg/kg p.o.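 As to Analgesic activity: ++ means marked effect and + means moderate effect.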
Experimental: as §1
The compounds studied and saline were administered p.o. to rats. Forty-five minutes later, 1 ml of 1% acetic acid was administered i.p. The number of writhes was recorded in the following 25 minute period (Koster et al: Fed. Proc. 18:412, 1959).

[11] = system: carrageenan-induced oedema; test: Inhibition of carrageenan-induced oedema;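 as to Anti-inflammatory activity: ++ means marked effect and + means moderate effect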; type: in vivo, rat; details: for Anti-inflammatory activity: 100 mg/kg p.o. in the rat; for inhibition in vivo at 100 mg/kg: Rattus norvegicus, po, read-out: inhibition carrageenan-induced oedema (%)
Experimental: The anti-inflammatory activity of the compounds of the invention was determined by inhibition of the carrageenan induced oedema in rats by the compounds examined (Winter C. A. et al., Proc. Soc. Exp. Biol. Med. 111:544, 1962).

[12] = read-out: Blood Pressure Minimum Dose having a significant lowering effect
[13] = read-out: Pulse frequency Minimum Dose having a significant lowering effect
[14] = 10 μg/kg i.v., anesthetized rats, on an average

| SMILES | LD50 [1] | anti-hypertensive effect [3] | selectivity ratio [6] | ED50 [2] | minimal effective dose [3, 12] | minimal effective dose [3, 13] | Analgesic activity [10] | W-number [10] | Anti-inflammatory activity [11] | inhibition in vivo at 100 mg/kg [11] | prevention of the formation of ulcers ([2]; 0.5 mg/kg) | prevention of the formation of ulcers ([2]; 5 mg/kg) | further results |
| --- | --- | --- | --- | --- | --- | --- | --- | --- | --- | --- | --- | --- | --- |
| Cc1cccc(C)c1C(=O)c1c[nH]cn1 [4-(2',6'-dimethylbenzoyl)imidazole, 4-(2',6'-Dimethylbenzoyl)imidazole] | > 100 mg/kg | only a very slight anti-hypertensive effect | – | – | – | – | – | – | – | – | – | – | prevention of the formation of ulcers ([2]; 10 mg/kg): prevented them partially; prevention of the formation of ulcers ([2]; 20 mg/kg): prevented completely the formation of ulcers |
| Cc1[nH]cnc1Cc1ccccc1 [4-benzyl-5-methylimidazole] | – | – | – | – | – | – | – | – | – | – | – | – | antihypertensive activity ([4]; found by our experiments): no antihypertensive activity; blood pressure change in rats ([4]; rats, 1 mg/kg i.v.): the blood pressure rises; blood pressure lowering effect in rats ([4]; rats, at any dosage): no blood pressure lowering effect |
| Cc1ccccc1Cc1c[nH]cn1 [4-(2'-methylbenzyl)imidazole, 4-(2'-Methylbenzyl)imidazole] | 25 mg/kg | – | 5000 | 0.005 mg/kg | 0.01 to 0.1 mg/kg | 0.1 to 1 mg/kg | – | – | – | – | – | – | Analgesic activity [5]: +; change in vivo at 1.5 mg/kg [5]: 200%; prevention of the formation of ulcers ([2]; 5 μg/kg i.p.): complete prevention of the formation of ulcers; lowering of blood pressure ([3]; 0.5 mg/kg i.v., 30 minutes after administration): 10% |
| Cc1cccc(C)c1Cc1cnc[nH]1 [4-(2',6'-dimethylbenzyl)imidazole, 4-(2',6'-Dimethylbenzyl)imidazole] | 40 mg/kg | – | 8000 | 0.005 mg/kg | 0.003 to 0.1 mg/kg | 0.003 mg/kg | – | – | – | – | – | – | decrease of blood pressure ([7]; awake SHR, 100 μg/kg p.o., four hours after administration): about 20%; decrease of blood pressure ([7]; awake SHR, 300 μg/kg p.o., four hours after administration): 25%; decrease of motility [8]: ++; loss of muscle tone [8]: +; prevention of the formation of ulcers ([2]; 5 μg/kg i.p.): completely prevented the formation of ulcers; loss of avoidance [9]: ++; loss of muscle tone [9]: +; lowering of the blood pressure ([3]; 1 μg/kg i.v., anesthetized rats): detectable lowering of the blood pressure; blood pressure lowering ([3]; 3 μg/kg i.v., anesthetized rats): quite clear; decrease of pulse frequency [3, 14]: 12%; reduction of blood pressure [3, 14]: 30%; therapeutic range ([3]; LD50 40 mg/kg i.v. in mice versus blood pressure lowering doses): very broad; duration of the effect ([3]; i.v., anesthetized rats, determination then interrupted): at least 50 minutes |
| Cc1ccc(Cc2c[nH]cn2)c(C)c1 [4-(2',4'-dimethylbenzyl)imidazole, 4-(2',4'-Dimethylbenzyl)imidazole] | 65 mg/kg | – | 2170 | 0.03 mg/kg | – | – | ++ | 0 | ++ | 76% | – | – | Analgesic activity [5]: +; change in vivo at 1.5 mg/kg [5]: 200% |
| Cc1cccc(C)c1C(O)c1c[nH]cn1 (stereo not drawn) [4-[α-(2',6'-Dimethylphenyl)]hydroxymethylimidazole] | 125 mg/kg | – | – | – | 0.1 to 3 mg/kg | 0.1 mg/kg | – | – | – | – | the prevention was partial | completely prevented the formation of ulcers | decrease of blood pressure ([7]; awake SHR rats, 3 mg/kg p.o., 3 hours after administration): 20%; lowering of blood pressure ([3]; 300 μg/kg i.v.): noticeable |
| Cc1ccccc1C(O)c1c[nH]cn1 (stereo not drawn) [4-[α-(2'-Methylphenyl)]hydroxymethylimidazole] | 160 mg/kg | no anti-hypertensive effect was found | – | – | – | – | ++ | 0 | + | 41% | prevented them partly | completely prevented the formation of ulcers | – |
| CCOC(c1c[nH]cn1)c1c(C)cccc1C (stereo not drawn) [4-[α-(2',6'-Dimethylphenyl)]ethoxymethylimidazole] | 45 mg/kg | only a very slight anti-hypertensive effect | – | – | – | – | ++ | 0.6 | + | 35% | prevented them partly | completely prevented the formation of ulcers | – |
